Experimental data published in patent publication US7230018B2, “Substituted propane-1,3-diamine derivatives and the pharmaceutical use thereof” (Gruenenthal GmbH, priority 2001, dated 2007).

system: phenylquinone-induced writhing in the mouse; experiment: phenylquinone-induced writhing test in the mouse; type: in vivo; conditions: male NMRI mice, 10 mg/kg intravenously, phenylquinone intraperitoneally 10 minutes after test substance, writhing counted 5 to 20 minutes after phenylquinone, hydrochloride
Protocol: Testing of Analgesia in the Writhing Test in the Mouse
The investigation for analgesic activity was carried out in the phenylquinone-induced writhing in the mouse (modified by I. C. Hendershot and J. Forsaith (1959) J. Pharmacol. Exp. Ther. 125, 237-240). Male NMRI mice weighing 25 to 30 g were employed for this. Groups of 10 animals per substance dose received 0.3 ml/mouse of a 0.02% aqueous solution of phenylquinone (phenylbenzoquinone, Sigma, Deisenhofen; preparation of the solution with the addition of 5% ethanol and storage in a water bath at 45° C.) administered intraperitoneally 10 minutes after intravenous administration of the test substances. The animals were placed individually in observation cages. The number of pain-induced stretching movements (so-called writhing reactions=straightening of the body with stretching of the hind extremities) was counted by means of a push-button counter 5 to 20 minutes after the administration of phenylquinone. Animals which received only physiological saline solution were also run as a control. All the substances were tested in the standard dosage of 10 mg/kg. The percentage inhibition (% inhibition) of the writhing reaction by a substance was calculated according to the following formula: […]

Row | SMILES | % Inhibition of the writhing reaction (dosage in mg/kg intravenously)
1 | CN(C)C(c1cccnc1)C1CCCCC1NC(=O)c1ccccc1.Cl (stereo not drawn) [Example 1, (syn,syn)-N-[2-(dimethylaminopyridin-3-ylmethyl)cyclohexyl]benzamide hydrochloride] | 54 (10) %
2 | CN(C)C(c1cccnc1)C1CCCCC1NC(=O)c1ccccc1F.Cl (stereo not drawn) [Example 2, (syn,syn)-N-[2-(dimethylaminopyridin-3-ylmethyl)cyclohexyl]-2-fluorobenzamide hydrochloride] | 67 (10) %
3 | CN(C)C(c1cccnc1)C1CCCCC1NC(=O)c1ccccc1Cl.Cl (stereo not drawn) [Example 3, (syn,syn)-2-chloro-N-[2-(dimethylaminopyridin-3-ylmethyl)cyclohexyl]-benzamide hydrochloride] | 85 (10) %
4 | Cc1ccccc1C(=O)NC1CCCCC1C(c1cccnc1)N(C)C.Cl (stereo not drawn) [Example 4, (syn,syn)-N-[2-(dimethylaminopyridin-3-ylmethyl)cyclohexyl]-2-methylbenzamide hydrochloride] | 34 (10) %
5 | CN(C)C(c1cccnc1)C1CCCCC1NC(=O)c1ccccc1.Cl (stereo not drawn) [Example 5, (anti,anti)-N-[2-(dimethylaminopyridin-3-ylmethyl)cyclohexyl]-benzamide hydrochloride] | 49 (10) %
6 | CN(C)C(c1cccnc1)C1CCCCC1NC(=O)c1ccccc1F.Cl (stereo not drawn) [Example 6, (anti,anti)-N-[2-(dimethylaminopyridin-3-ylmethyl)cyclohexyl]-2-fluorobenzamide hydrochloride] | 62 (10) %
7 | CN(C)C(c1cccnc1)C1CCCCC1NC(=O)c1ccccc1Cl.Cl (stereo not drawn) [Example 7, (anti,anti)-2-chloro-N-[2-(dimethylaminopyridin-3-ylmethyl)cyclohexyl]benzamide hydrochloride] | 56 (10) %
8 | Cc1ccccc1C(=O)NC1CCCCC1C(c1cccnc1)N(C)C.Cl (stereo not drawn) [Example 8, (anti,anti)-N-[2-(dimethylaminopyridin-3-ylmethyl)cyclohexyl]-2-methylbenzamide hydrochloride] | 40 (10) %
9 | CC(=O)NC1CCCCC1C(c1cccnc1)N(C)C.Cl (stereo not drawn) [Example 9, (syn,syn)-N-[2-(dimethylaminopyridin-3-ylmethyl)cyclohexyl]acetamide hydrochloride] | 75 (10) %
10 | CC(=O)NC1CCCCC1C(c1cccnc1)N(C)C.Cl (stereo not drawn) [Example 10, (anti,anti)-N-[2-(dimethylaminopyridin-3-ylmethyl)cyclohexyl]acetamide hydrochloride] | 59 (10) %
